Test results from US8461329B2, “Isoquinoline derivative” (Taisho Pharmaceutical Co., Ltd., priority 2008, dated 2013).

Each molecule was assayed against T1, CRTH2 (KB8 cells) (Homo sapiens, UniProt Q9Y5Y4) (assay: CRTH2 antagonist test (PGD2-induced intracellular calcium ion concentration increase in KB8 cells)). Details: PGD2 final concentration 100 nM, Fluo-4-AM fluorescence, read-out: antagonist activity (IC50 value, inhibition of calcium ion concentration increase).
T1 construct: host or cells: KB8 cells (human CRTH2 expression cell)
T1 sequence (Q9Y5Y4 1-395): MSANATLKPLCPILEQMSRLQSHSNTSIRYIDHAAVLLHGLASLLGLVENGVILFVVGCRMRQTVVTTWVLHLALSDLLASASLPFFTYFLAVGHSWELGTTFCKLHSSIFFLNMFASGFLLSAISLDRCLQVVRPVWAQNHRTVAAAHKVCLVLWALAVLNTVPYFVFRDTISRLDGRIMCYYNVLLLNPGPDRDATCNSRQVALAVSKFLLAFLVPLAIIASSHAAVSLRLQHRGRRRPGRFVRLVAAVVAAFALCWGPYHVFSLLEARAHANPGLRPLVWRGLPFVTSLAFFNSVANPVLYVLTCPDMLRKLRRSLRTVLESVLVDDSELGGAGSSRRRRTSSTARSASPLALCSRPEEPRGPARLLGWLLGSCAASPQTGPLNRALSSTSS
Type: cell-based
Protocol: The antagonist activity of the compound of the present invention was considered by using the intracellular calcium ion concentration increase reaction induced when the prostaglandin D2 was added to KB8 cells.
Fluo-4-AM (4-(6-acetoxymethoxy-2,7-difluoro-3-oxo-9-xanthenyl)-4′-methyl-2,2′-(ethylenedioxy)dianilide-N,N,N′,N′-tetraacetic acid tetrakis(acetoxymethyl) ester (SIGMA, final concentration: 1 μM) was added to KB8 cells, and the cells were incubated at 37° C. for 30 min, washed with phosphate buffer (Invitrogen), and then suspended in Hank's balanced salt solution (Invitrogen)) containing a reaction buffer solution (10 mM HEPES (Invitrogen), and 1 mM calcium chloride (SIGMA). The suspension was dispensed in a 96 well plate (Nunc) so that 2×10^5 cells/well were placed, and the compound of the present invention and PGD2 (final concentration: 100 nM) were added. The fluorescence intensity thereof was measured over time by using FDSS6000 (Hamamatsu Photonics), and thus the maximum fluorescence intensity value “d” was obtained. The same procedure was carried out in the absence of the compound, and the maximum fluorescence intensity value “e” was obtained; and the same procedure was carried out in the absence of the compound and […], and the maximum fluorescence intensity value “f” was obtained.
The calcium ion concentration increase inhibition rate of a compound was calculated by the following calculation formula: Inhibitory rate(%)=[1−(d−f)/(e−f)]×100
That is to say, by using calcium ion concentration increase inhibitory rates of compounds to be tested having various concentrations, the IC50 value was calculated according to a dose-dependent inhibition curve analyzed by using XLfit (IDBS) as a data analysis software, and the value was defined as an indicator of the antagonist activity. In Tables, A denotes an inhibitory activity showing the IC50 value of less than 50 nM; B denotes an inhibitory activity showing the IC50 value of 50 nM or greater and less than 500 nM; C denotes an inhibitory activity showing the IC50 value of 500 nM or greater and less than 1000 nM; and D denotes an inhibitory activity showing the IC50 value of 1000 nM or greater.

Structure (SMILES)	IC50
O=C(O)Cc1cnc(C(=O)c2ccc(NC(=O)c3ccccc3Cl)cc2)c2ccccc12 [Example 24]	≥ 1000 nM
O=C(O)Cc1cnc(C(=O)c2ccc(NC(=O)c3ccccc3Br)cc2)c2ccccc12 [Example 25]	≥ 1000 nM
Cc1ccccc1C(=O)Nc1ccc(C(=O)c2ncc(CC(=O)O)c3ccccc23)cc1 [Example 26]	50 to 500 nM
O=C(O)Cc1cnc(C(=O)c2ccc(NC(=O)c3ccc(F)cc3)cc2)c2ccccc12 [Example 28]	< 50 nM
O=C(O)Cc1cnc(C(=O)c2ccc(NC(=O)c3cccc(Cl)c3Cl)cc2)c2ccccc12 [Example 30]	500 to 1000 nM
O=C(O)Cc1cnc(C(=O)c2ccc(NC(=O)c3ccc(Cl)c(F)c3)cc2)c2ccccc12 [Example 31]	< 50 nM
O=C(O)Cc1cnc(C(=O)c2ccc(NC(=O)c3ccc(Br)cc3)cc2)c2ccccc12 [Example 32]	< 50 nM
O=C(O)Cc1cnc(C(=O)c2ccc(NC(=O)c3c(Cl)cccc3Cl)cc2)c2ccccc12 [Example 33]	≥ 1000 nM
O=C(O)Cc1cnc(C(=O)c2ccc(NC(=O)c3ccc(F)c(F)c3)cc2)c2ccccc12 [Example 35]	< 50 nM
O=C(O)Cc1cnc(C(=O)c2ccc(NC(=O)c3c(F)cccc3Cl)cc2)c2ccccc12 [Example 36]	≥ 1000 nM
O=C(O)Cc1cnc(C(=O)c2ccc(NC(=O)c3cc(Cl)cc(Cl)c3)cc2)c2ccccc12 [Example 37]	< 50 nM
O=C(O)Cc1cnc(C(=O)c2ccc(NC(=O)c3ccccc3)cc2)c2ccccc12 [Example 38]	< 50 nM
O=C(O)Cc1cnc(C(=O)c2ccc(NC(=O)c3ccccc3F)cc2)c2ccccc12 [Example 39]	500 to 1000 nM
COc1ccccc1C(=O)Nc1ccc(C(=O)c2ncc(CC(=O)O)c3ccccc23)cc1 [Example 40]	≥ 1000 nM
O=C(O)Cc1cnc(C(=O)c2ccc(NC(=O)c3ccc(Cl)cc3Cl)cc2)c2ccccc12 [Example 41]	50 to 500 nM
O=C(O)Cc1cnc(C(=O)c2ccc(NC(=O)c3cc(F)ccc3Cl)cc2)c2ccccc12 [Example 42]	500 to 1000 nM
O=C(O)Cc1cnc(C(=O)c2ccc(NC(=O)c3cc(Cl)ccc3Cl)cc2)c2ccccc12 [Example 43]	50 to 500 nM
Cc1ccc(C)c(C(=O)Nc2ccc(C(=O)c3ncc(CC(=O)O)c4ccccc34)cc2)c1 [Example 44]	50 to 500 nM
O=C(O)Cc1cnc(C(=O)c2ccc(NC(=O)c3cc(Cl)cc(Cl)c3Cl)cc2)c2ccccc12 [Example 45]	50 to 500 nM
O=C(O)Cc1cnc(C(=O)c2ccc(NC(=O)c3cccc4ccccc34)cc2)c2ccccc12 [Example 46]	50 to 500 nM
O=C(O)Cc1cnc(C(=O)c2ccc(NC(=O)c3ccc(F)cc3Cl)cc2)c2ccccc12 [Example 47]	500 to 1000 nM

The next lines start with the values.

IC50	Structure (SMILES)
≥ 1000 nM	O=C(O)Cc1cnc(C(=O)c2ccc(NC(=O)c3c(Cl)cc(Cl)cc3Cl)cc2)c2ccccc12 [Example 48]
≥ 1000 nM	Cc1ccc(Cl)c(C(=O)Nc2ccc(C(=O)c3ncc(CC(=O)O)c4ccccc34)cc2)c1F [Example 49]
≥ 1000 nM	O=C(O)Cc1cnc(C(=O)c2ccc(NC(=O)c3ccncc3)cc2)c2ccccc12 [Example 51]
50 to 500 nM	O=C(O)Cc1cnc(C(=O)c2ccc(NC(=O)c3ccc(F)c(F)c3F)cc2)c2ccccc12 [Example 52]
50 to 500 nM	O=C(O)Cc1cnc(C(=O)c2ccc(NC(=O)CC34CC5CC(CC(C5)C3)C4)cc2)c2ccccc12 [Example 53]
< 50 nM	O=C(O)Cc1cnc(C(=O)c2ccc(NC(=O)c3ccc4c(c3)CCCC4)cc2)c2ccccc12 [Example 54]
500 to 1000 nM	O=C(O)Cc1cnc(C(=O)c2ccc(NC(=O)c3ncccn3)cc2)c2ccccc12 [Example 55]
50 to 500 nM	O=C(O)Cc1cnc(C(=O)c2ccc(NC(=O)c3cc(F)c(Cl)cc3Cl)cc2)c2ccccc12 [Example 56]
≥ 1000 nM	O=C(O)Cc1cnc(C(=O)c2ccc(NC(=O)c3cscn3)cc2)c2ccccc12 [Example 58]
50 to 500 nM	O=C(O)Cc1cnc(C(=O)c2ccc(NC(=O)C3(c4ccc(Cl)cc4)CCCC3)cc2)c2ccccc12 [Example 59]
